Drawing on US6048854A, “2,3-diaminopropionic acid derivative” (Sumitomo Pharmaceuticals Company, Limited, priority 1993, dated 2000), this text covers IC50 and inhibition in vivo for eight compounds.

pIC50: −log10 of the molar value. Read-outs that look alike come from different tables or passages of the source.

The subject of one experiment is human fibronectin. Briefly: Binding assay of platelet to adhesive protein: fibronectin (receptor binding inhibition). Conditions: Table 4; fixed activated human platelets, 37° C., 60 minutes. The method, boiled down: (§1)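 Washed human platelets, activated with 5 µM epinephrine and 30 µM ADP, then paraformaldehyde-fixed, added at 10^8/mL with compound to wells coated with 5 µg/mL fibrinogen (fibronectin-depleted), fibronectin or vitronectin; 60 min, 37 °C. Bound platelets detected with HRP anti-mouse IgG and o-phenylenediamine, A490.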

The subject of experiment [1] is platelet aggregation. Briefly: Platelet aggregation inhibitory activity (ADP-induced, human platelet rich plasma). In kind it is cell-based. Conditions: Homo sapiens, Table 3, same manner as Example 17. Put shortly: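 Citrated human platelet-rich plasma […] was stirred with test compound for 2 min at 37 °C. Aggregation was then induced with ADP at 3 μg/ml final and monitored by nephelometry. IC50 is the concentration giving 50% inhibition of aggregation.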

The test system of experiment [2] is platelet aggregation. Briefly: Platelet aggregation inhibitory activity (ex vivo) after oral administration. It counts as in vivo. Conditions: Cavia porcellus, guinea pig, oral 0.1 mg/kg, ADP 10 μg/ml. The method, boiled down: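 Guinea pigs dosed orally at 0.1 mg/kg; citrated carotid blood taken before and at 0.5, 1, 2, 4 and 6 h. PRP aggregation induced by ADP (10 μg/ml final) at 37° C, measured turbidimetrically; inhibition = (1 − MAR sample/MAR predose) × 100.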

Another experiment deals with T1, human fibrinogen (Homo sapiens, UniProt P05106+P08514).
T1 construct: centrifuged at 11000 rpm for two minutes to give human platelet; from tissue
Briefly: Binding assay of platelet to adhesive protein: fibrinogen (receptor binding inhibition). Conditions: Table 4; fixed activated human platelets, 37° C., 60 minutes. Put shortly: as §1

The next experiment has as its system human vitronectin. Briefly: Binding assay of platelet to adhesive protein: vitronectin (receptor binding inhibition). Conditions: Table 4; fixed activated human platelets, 37° C., 60 minutes; read-out: receptor binding inhibition (IC50), Bitronectin. The method, boiled down:
as §1

The mark [3] stands for this setting: 0.5 hr, read-out: platelet aggregation inhibitory rate (%), 0.5 hr.
Where [4] appears, read: 1 hr, read-out: platelet aggregation inhibitory rate (%), 1 hr.
Where [5] appears, read: 2 hrs, read-out: platelet aggregation inhibitory rate (%), 2 hrs.
Setting [6] is: 4 hrs, read-out: platelet aggregation inhibitory rate (%), 4 hrs.
Setting [7] is: 6 hrs, read-out: platelet aggregation inhibitory rate (%), 6 hrs.

T1 sequence (P08514 32-887 limits assumed): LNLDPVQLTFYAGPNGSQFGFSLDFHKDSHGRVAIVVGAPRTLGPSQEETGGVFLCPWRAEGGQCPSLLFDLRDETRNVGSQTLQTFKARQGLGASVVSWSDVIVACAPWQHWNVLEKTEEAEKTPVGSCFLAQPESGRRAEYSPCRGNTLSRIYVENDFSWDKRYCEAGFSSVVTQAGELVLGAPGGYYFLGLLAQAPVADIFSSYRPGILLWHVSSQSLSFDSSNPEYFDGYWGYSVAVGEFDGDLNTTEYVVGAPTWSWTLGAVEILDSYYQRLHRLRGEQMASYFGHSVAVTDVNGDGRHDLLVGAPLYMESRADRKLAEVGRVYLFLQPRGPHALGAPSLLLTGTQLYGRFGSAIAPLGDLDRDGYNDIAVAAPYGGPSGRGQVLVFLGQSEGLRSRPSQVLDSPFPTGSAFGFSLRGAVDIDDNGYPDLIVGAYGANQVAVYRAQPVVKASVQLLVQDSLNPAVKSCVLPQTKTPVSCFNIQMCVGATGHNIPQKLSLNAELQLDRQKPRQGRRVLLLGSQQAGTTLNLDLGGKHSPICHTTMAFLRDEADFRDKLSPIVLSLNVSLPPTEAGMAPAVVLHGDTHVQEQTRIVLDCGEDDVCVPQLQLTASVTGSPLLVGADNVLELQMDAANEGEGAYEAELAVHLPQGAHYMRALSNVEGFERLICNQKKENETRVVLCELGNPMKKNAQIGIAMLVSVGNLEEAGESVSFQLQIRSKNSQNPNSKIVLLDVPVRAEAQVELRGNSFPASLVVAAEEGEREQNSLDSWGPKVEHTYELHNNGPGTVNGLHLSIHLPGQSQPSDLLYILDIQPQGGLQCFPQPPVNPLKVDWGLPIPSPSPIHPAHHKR
T1 sequence (P08514 891-1039 limits assumed): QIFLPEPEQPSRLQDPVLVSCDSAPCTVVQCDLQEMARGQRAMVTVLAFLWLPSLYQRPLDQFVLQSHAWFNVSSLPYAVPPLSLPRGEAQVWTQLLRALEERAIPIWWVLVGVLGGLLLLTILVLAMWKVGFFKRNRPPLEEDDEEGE
T1 sequence (P05106 27-788): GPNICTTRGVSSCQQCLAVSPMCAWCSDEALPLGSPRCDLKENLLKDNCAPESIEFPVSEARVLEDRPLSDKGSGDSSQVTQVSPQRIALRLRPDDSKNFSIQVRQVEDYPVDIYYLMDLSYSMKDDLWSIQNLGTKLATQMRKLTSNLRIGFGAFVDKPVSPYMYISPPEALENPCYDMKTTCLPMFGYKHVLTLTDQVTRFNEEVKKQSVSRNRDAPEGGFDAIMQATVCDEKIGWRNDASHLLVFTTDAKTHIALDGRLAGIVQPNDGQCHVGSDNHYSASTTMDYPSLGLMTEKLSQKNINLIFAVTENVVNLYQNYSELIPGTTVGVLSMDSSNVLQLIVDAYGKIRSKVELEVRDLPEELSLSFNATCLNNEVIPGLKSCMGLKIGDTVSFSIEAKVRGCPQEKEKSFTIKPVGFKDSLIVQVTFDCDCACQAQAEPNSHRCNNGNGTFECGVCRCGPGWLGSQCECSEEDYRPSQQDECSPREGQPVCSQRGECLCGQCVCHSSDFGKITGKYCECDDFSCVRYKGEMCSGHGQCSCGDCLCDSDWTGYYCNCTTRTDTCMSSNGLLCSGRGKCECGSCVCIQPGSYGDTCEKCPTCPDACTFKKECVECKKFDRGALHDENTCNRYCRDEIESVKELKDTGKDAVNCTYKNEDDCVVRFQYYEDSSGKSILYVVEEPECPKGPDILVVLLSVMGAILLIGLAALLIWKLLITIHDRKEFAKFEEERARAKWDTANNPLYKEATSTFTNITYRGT

As usually defined, the pIC50 is −log10 of the IC50, conventionally taken in molar units. On to `N=C(N)c1ccc(OCCCC(=O)NC[C@H](NS(=O)(=O)c2ccccc2C(F)(F)F)C(=O)O)cc1` [Example 82, (2S)-3-(4-(4-amidinophenoxy)butanoylamino)-2-(2-trifluoromethyl)benzenesulfonylaminopropanoic Acid], for which the pIC50 was 7.72 in the experiment on human fibronectin, 7.51 in the experiment with platelet aggregation [1], 8.92 at human fibrinogen and 6.57 in the experiment with human vitronectin. Further, the inhibition in vivo at 0.1 mg/kg was 81% in the experiment on platelet aggregation [2] (setting [3]); 66% with platelet aggregation [2] (setting [4]); 54% in the experiment with platelet aggregation [2] (setting [5]); 52% in the experiment on platelet aggregation [2] (setting [6]); 51% with platelet aggregation [2] (setting [7]).

Turning to `CCc1ccc(S(=O)(=O)N[C@@H](CNC(=O)CCCOc2ccc(C(=N)N)cc2)C(=O)O)cc1` [Example 83, (2S)-3-(4-(4-amidinophenoxy)butanoylamino)-2-(4-ethyl)benzenesulfonylaminopropanoic Acid], the pIC50 with human fibronectin was 6.11; in the experiment with platelet aggregation [1], 7.52; on human fibrinogen, 7.66; with human vitronectin it was 5.11. The inhibition in vivo at 0.1 mg/kg in the experiment on platelet aggregation [2] (setting [3]) was 50%; with platelet aggregation [2] (setting [4]), 47%; with platelet aggregation [2] (setting [5]), 48%; in the experiment on platelet aggregation [2] (setting [6]) it was 32%; in the experiment with platelet aggregation [2] (setting [7]) it was 41%.

`N=C(N)c1ccc(OCCCCC(=O)NC[C@H](NS(=O)(=O)c2ccccc2[N+](=O)[O-])C(=O)O)cc1` [Example 85, (2S)-3-(5-(4-amidinophenoxy)pentanoylamino)-2-(2-nitro)benzenesulfonylaminopropanoic Acid]: the negative-log IC50 (pIC50) with human fibronectin was 7.70; with platelet aggregation [1], 7.59; at human fibrinogen, 8.32; with human vitronectin, 6.57. Also, the inhibition in vivo at 0.1 mg/kg in the experiment with platelet aggregation [2] (setting [3]) is 36%; in the experiment with platelet aggregation [2] (setting [4]), 41%; with platelet aggregation [2] (setting [5]) it was 44%; with platelet aggregation [2] (setting [6]), 31%; in the experiment with platelet aggregation [2] (setting [7]), 17%.

For the compound `Cc1cc(C)c(S(=O)(=O)N[C@@H](CNC(=O)CCCCOc2ccc(C(=N)N)cc2)C(=O)O)c(C)c1` [Example 86, (2S)-3-(5-(4-amidinophenoxy)pentanoylamino)-2-(2,4,6-trimethyl)benzenesulfonylaminopropanoic Acid], the negative-log IC50 (pIC50) was 6.92 with human fibronectin, 7.25 in the experiment on platelet aggregation [1], 8.96 on human fibrinogen and 6.30 with human vitronectin. Further, the inhibition in vivo at 0.1 mg/kg with platelet aggregation [2] (setting [3]) worked out at 46%; in the experiment on platelet aggregation [2] (setting [4]) it was 0%; in the experiment with platelet aggregation [2] (setting [5]) it was 0%; in the experiment on platelet aggregation [2] (setting [6]), 0%; in the experiment with platelet aggregation [2] (setting [7]), 0%.

Turning to `Cc1cc(C)c(S(=O)(=O)N[C@@H](CNC(=O)CCCCc2ccc(C(=N)N)cc2)C(=O)O)c(C)c1` [Example 87, (2S)-3-(5-(4-amidinophenyl)pentanoylamino)-2-(2,4,6-trimethyl)benzenesulfonylaminopropanoic Acid], the negative-log IC50 (pIC50) with human fibronectin was 6.68; with platelet aggregation [1] it was 7.60; on human fibrinogen it was 7.92; in the experiment with human vitronectin, 5.57. In addition, the inhibition in vivo at 0.1 mg/kg was determined as 100% with platelet aggregation [2] (setting [3]); 100% in the experiment with platelet aggregation [2] (setting [4]); 100% with platelet aggregation [2] (setting [5]); 100% in the experiment with platelet aggregation [2] (setting [6]); 80% with platelet aggregation [2] (setting [7]).

As for `N=C(N)c1ccc(CCCCCC(=O)NC[C@H](NS(=O)(=O)c2ccccc2)C(=O)O)cc1` [Example 91, (2S)-3-(6-(4-amidinophenyl)hexanoylamino)-2-benzenesulfonylaminopropanoic Acid], the pIC50 in the experiment on human fibronectin was 7.30; in the experiment with platelet aggregation [1] it was 7.64; on human fibrinogen, 8.33; in the experiment with human vitronectin it was 5.89. The inhibition in vivo at 0.1 mg/kg with platelet aggregation [2] (setting [3]) worked out at 51%; with platelet aggregation [2] (setting [4]) it was 41%; with platelet aggregation [2] (setting [5]) it was 31%; with platelet aggregation [2] (setting [6]), 14%; in the experiment with platelet aggregation [2] (setting [7]) it was 39%.

As for `Cc1cc(C)c(S(=O)(=O)N[C@@H](CNC(=O)CCCCCc2ccc(C(=N)N)cc2)C(=O)O)c(C)c1` [Example 92, (2S)-3-(6-(4-amidinophenyl)hexanoylamino)-2-(2,4,6-trimethyl)benzenesulfonylaminopropanoic Acid], the pIC50 with human fibronectin was 7.62; with platelet aggregation [1], 7.43; at human fibrinogen it was 8.41; with human vitronectin it was 6.30. Besides, the inhibition in vivo at 0.1 mg/kg was 68% with platelet aggregation [2] (setting [3]); 34% with platelet aggregation [2] (setting [4]); 24% in the experiment on platelet aggregation [2] (setting [5]); 47% with platelet aggregation [2] (setting [6]); 0% with platelet aggregation [2] (setting [7]).

As to `COc1ccc(S(=O)(=O)N[C@@H](CNC(=O)CC2CCN(c3ccc(C(=N)N)cc3)CC2)C(=O)O)cc1` [Example 93, (2S)-3-(2-(1-(4-amidinophenyl)-4-piperidyl)ethanoylamino)-2-(4-methoxy)benzenesulfonylaminopropanoic Acid], the pIC50 in the experiment on human fibronectin is 7.02; in the experiment on platelet aggregation [1], 7.03; on human fibrinogen it was 7.82; in the experiment with human vitronectin, 5.46. Moreover, the inhibition in vivo at 0.1 mg/kg was 4% in the experiment with platelet aggregation [2] (setting [3]); 27% in the experiment with platelet aggregation [2] (setting [4]); 69% with platelet aggregation [2] (setting [5]); 44% in the experiment with platelet aggregation [2] (setting [6]); 12% in the experiment with platelet aggregation [2] (setting [7]).
